Data on 11 compounds can be found in ChEMBL document CHEMBL1201862, “PubChem BioAssay data set” (2004).

Test systems include 786-0; CCRF-CEM; DU-145; HCC 2998; HCT-116; HCT-15; HOP-92; HT-29; K562; KM12; LOX IMVI; NCI-H23; NCI/ADR-RES; SF-295; SNB-19; T47D; UACC-62; A498; NCI-H226; SR.
Common to all, as to experiment: DTP human tumour cell line panel, 48 h

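Growth conditions: 96-well plates. Treatment: test compound, 48 hours, 5 concentrations. Analysis: linear interpolation between bracketing concentrations; unreached endpoints set to highest concentration. Here, GI50 denotes the concentration required for 50% inhibition of growth.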 Active and inactive are the calls of the source. No stated cut-off is given here; in the data, active = GI50 up to about 1.1 µM and inactive = higher.

Turning to `COc1ccccc1NC(=S)N/N=C(/C)c1ccccn1`, the GI50 with 786-0 was < 0.0123 µM (active); in the test with CCRF-CEM it was < 0.01 µM (active); in the test with DU-145, 1.28 µM (inactive); in the test with HCC 2998, 7 µM (inactive); in the test with HCT-116, < 0.01 µM (active); in the test with HCT-15, below 0.0318 µM. The GI50 is 6.93 µM (inactive) with HOP-92; < 0.01 µM (active) with HT-29; < 0.01 µM (active) with K562; 0.117 µM (active) in the test on KM12; < 0.01 µM (active) in the test on LOX IMVI; < 0.0185 µM (active) in the test with NCI-H23. In addition, the GI50 is < 0.01 µM (active) in the test on NCI/ADR-RES; 0.0771 µM (active) in the test on SF-295; 6.19 µM (inactive) in the test on SNB-19; < 0.01 µM (active) in the test with T47D; 0.238 µM (active) in the test on UACC-62.
With `Clc1ccc(C2ON=C(c3ccccc3)N2C23CC4CC(CC(C4)C2)C3)cc1Cl` (configuration not stated), the GI50 with 786-0, with A498, in the test with CCRF-CEM, in the test with DU-145, in the test with HCC 2998 and with HCT-116 was > 10 µM (inactive) each time. Moreover, the concentration for 50% growth inhibition (GI50) in the test on HCT-15 is above 10 µM; in the test on HOP-92, 7.13 µM (inactive); in the test with HT-29 it was > 10 µM (inactive); in the test on K562 it was > 10 µM (inactive); in the test on KM12 it was > 10 µM (inactive); in the test with LOX IMVI, > 10 µM (inactive). The GI50 in the test with NCI-H226, with NCI-H23, in the test with NCI/ADR-RES, in the test with SF-295, in the test with SNB-19 and with T47D was > 10 µM (inactive) each time. Moreover, the GI50 in the test with UACC-62 is > 10 µM (inactive).
Take `COC(=O)C1=C(C)C=C(N2CCOCC2)C(C(=O)OC)C1c1ccccc1` (configuration not stated): the GI50 in the test on 786-0, in the test on A498, in the test with CCRF-CEM, with DU-145, in the test on HCC 2998 and in the test on HCT-116 was > 10 µM (inactive) throughout. In addition, the GI50 is above 10 µM in the test with HCT-15; > 10 µM (inactive) in the test with HOP-92; > 10 µM (inactive) with HT-29; > 10 µM (inactive) with K562; > 10 µM (inactive) in the test on KM12; > 10 µM (inactive) with LOX IMVI. In addition, the GI50 in the test on NCI-H226, in the test with NCI-H23, with NCI/ADR-RES, in the test with SF-295, in the test on SNB-19 and in the test with T47D was > 10 µM (inactive) in each case.
In the case of `CCOP(=O)(OCC)/C(=C\n1c(=S)[nH]c2cc(C)ccc21)C(=O)OC`, the GI50 in the test with 786-0 was > 100 µM (inactive); in the test with A498, > 100 µM (inactive); in the test with DU-145 it was > 100 µM (inactive); with HCC 2998, > 100 µM (inactive); in the test with HCT-116, > 100 µM (inactive); in the test on HCT-15, above 100 µM. In addition, the GI50 in the test with HOP-92, with HT-29, in the test on KM12, in the test on LOX IMVI, in the test with NCI-H226 and with NCI-H23 was > 100 µM (inactive) in each case. Further, the GI50 in the test with NCI/ADR-RES, in the test on SF-295, with SNB-19, with T47D and in the test on UACC-62 was > 100 µM (inactive) each time.
As for `CC(=O)C(C(=O)c1ccc(C)cc1)[C@@H]1OC(C)(C)O[C@@H]1[C@H]1COC(C)(C)O1` (some centres not stated), the GI50 in the test on 786-0 is 6.4 µM (inactive); in the test on A498, 36.9 µM (inactive); in the test with CCRF-CEM, 1.27 µM (inactive); in the test with DU-145, 7.74 µM (inactive); in the test on HCC 2998, 25.1 µM (inactive); in the test on HCT-116 it was 3.72 µM (inactive). Moreover, the GI50 was 8.3 µM with HCT-15; 35.2 µM (inactive) in the test on HOP-92; 5.21 µM (inactive) with HT-29; 2.05 µM (inactive) with K562; 4.02 µM (inactive) in the test on KM12; 6.43 µM (inactive) with LOX IMVI. The GI50 is 9.53 µM (inactive) with NCI-H23; 9.93 µM (inactive) in the test with NCI/ADR-RES; 37.7 µM (inactive) with SF-295; 15.7 µM (inactive) in the test on SNB-19; 11.4 µM (inactive) in the test on T47D; 10.9 µM (inactive) with UACC-62.
As for `CN(C)c1ccc(/C=c2/c3ccccc3n3c2cc(/C=C/c2ccccc2)[n+]3C)cc1`, the GI50 was 0.0815 µM (active) in the test on 786-0; 0.266 µM (active) in the test on A498; 0.0206 µM (active) with CCRF-CEM; 0.1 µM (active) in the test with DU-145; 0.121 µM (active) in the test on HCC 2998; 0.0824 µM (active) in the test with HCT-116. In addition, the GI50 in the test with HCT-15 was 0.881 µM; with HOP-92, 0.0358 µM (active); with HT-29, 0.142 µM (active); in the test with K562, 0.0951 µM (active); in the test with KM12, 0.167 µM (active); with LOX IMVI it was 0.12 µM (active). For the same compound, the GI50 was 0.11 µM (active) in the test with NCI-H226; 0.0783 µM (active) in the test with NCI-H23; 0.225 µM (active) in the test on SF-295; 0.217 µM (active) in the test on SNB-19; 0.0367 µM (active) in the test with SR; 0.0164 µM (active) with T47D. The GI50 in the test on UACC-62 is 0.281 µM (active).
On to `COc1cc(-c2coc3c(OC)c(OC4OC(COC5OC(C)C(O)C(O)C5O)C(O)C(O)C4O)c(OC)c(O)c3c2=O)cc(C)c1O` (configuration not stated), for which the GI50 was 0.178 µM (active) in the test with 786-0; 5.93 µM (inactive) in the test on CCRF-CEM; 19.6 µM (inactive) in the test on DU-145; 16.1 µM (inactive) in the test with HCC 2998; 0.185 µM (active) in the test with HCT-116; 16.4 µM in the test with HCT-15. Besides, the GI50 with HOP-92 is 19.2 µM (inactive); with HT-29, 19.5 µM (inactive); in the test on K562, 13.4 µM (inactive); in the test on KM12, 11.7 µM (inactive); in the test on LOX IMVI, 16.5 µM (inactive); in the test on NCI-H23, 13.1 µM (inactive). Moreover, the GI50 is 17.9 µM (inactive) in the test on NCI/ADR-RES; 16.6 µM (inactive) in the test on SF-295; 13.8 µM (inactive) with SNB-19; 15.5 µM (inactive) in the test with T47D; 14.3 µM (inactive) in the test with UACC-62.
Consider `Cc1cccc2c(=O)c3cccc(CC(=O)O)c3oc12`, for which the GI50 in the test on 786-0 was > 100 µM (inactive); in the test on A498 it was > 100 µM (inactive); in the test on CCRF-CEM, > 100 µM (inactive); in the test on HCC 2998 it was > 100 µM (inactive); in the test on HCT-116 it was > 100 µM (inactive); in the test with HCT-15, above 100 µM. The GI50 with HOP-92, in the test with HT-29, in the test with K562, in the test on KM12, in the test with LOX IMVI and with NCI-H226 was > 100 µM (inactive) throughout. The GI50 with NCI-H23, in the test on NCI/ADR-RES, in the test on SF-295, with SNB-19, in the test on SR and with T47D was > 100 µM (inactive) throughout. Further, the GI50 with UACC-62 was > 100 µM (inactive).
As to `C/C(=N\NC(=S)N(C)C)c1ccccn1`, the concentration for 50% growth inhibition (GI50) was < 0.0118 µM (active) with 786-0; 0.519 µM (active) in the test on A498; < 0.01 µM (active) in the test with CCRF-CEM; 0.161 µM (active) in the test with DU-145; 0.161 µM (active) in the test on HCC 2998; < 0.01 µM (active) in the test on HCT-116. Moreover, the GI50 with HCT-15 was below 0.01 µM; in the test on HOP-92 it was 0.498 µM (active); in the test on HT-29, < 0.01 µM (active); with K562, < 0.01 µM (active); in the test with KM12 it was 0.0307 µM (active); in the test on LOX IMVI, < 0.01 µM (active). Also, the GI50 in the test with NCI-H226 was 0.148 µM (active); with NCI-H23, < 0.01 µM (active); in the test on NCI/ADR-RES, < 0.01 µM (active); in the test with SF-295, < 0.01 µM (active); in the test on SNB-19 it was 1.47 µM (inactive); in the test with T47D, < 0.01 µM (active). Besides, the GI50 with UACC-62 was < 0.0124 µM (active).
Regarding `c1ccc([P+](CCSCCSCC[P+](c2ccccc2)(c2ccccc2)c2ccccc2)(c2ccccc2)c2ccccc2)cc1`, the GI50 is > 100 µM (inactive) in the test on 786-0; > 100 µM (inactive) in the test with A498; > 100 µM (inactive) in the test on DU-145; > 100 µM (inactive) in the test on HCC 2998; > 100 µM (inactive) in the test on HCT-116; above 100 µM in the test on HCT-15. In addition, the GI50 with HOP-92 is > 100 µM (inactive); in the test on HT-29, > 100 µM (inactive); with K562, 53.5 µM (inactive); in the test with KM12 it was > 100 µM (inactive); in the test on NCI-H226, > 100 µM (inactive); with NCI-H23, > 100 µM (inactive). In addition, the GI50 in the test with NCI/ADR-RES was > 100 µM (inactive); in the test with SF-295, 33 µM (inactive); in the test with SNB-19 it was > 100 µM (inactive); in the test with T47D, > 100 µM (inactive); in the test on UACC-62 it was 64.4 µM (inactive).
Turning to `O=C(O)c1cc(NCc2cc(O)ccc2O)ccc1O` [LAVENDUSTIN C], the GI50 in the test with 786-0 was 45.3 µM (inactive); in the test on A498 it was > 100 µM (inactive); with CCRF-CEM it was 10.6 µM (inactive); in the test with DU-145, > 100 µM (inactive); in the test with HCC 2998, > 100 µM (inactive); in the test on HCT-116, 49.9 µM (inactive). Moreover, the GI50 is above 100 µM in the test with HCT-15; > 100 µM (inactive) in the test on HOP-92; > 100 µM (inactive) in the test with HT-29; > 100 µM (inactive) in the test on KM12; > 100 µM (inactive) with NCI-H226; > 100 µM (inactive) in the test on NCI-H23. The GI50 in the test on NCI/ADR-RES is > 100 µM (inactive); in the test with SF-295, > 100 µM (inactive); in the test on SNB-19, > 100 µM (inactive); in the test with T47D, 35.6 µM (inactive); in the test with UACC-62, > 100 µM (inactive).

In general, GI50 refers to the concentration that inhibits growth by half.
